Assay results as given in US11999752B2, “Vinyl imidazole compounds as inhibitors of KRAS” (Incyte Corporation, priority 2020, dated 2024).
Where two headings read alike, the source gives them in different places.

Experiments:
[1] = molecular target: KRAS G12C (Homo sapiens, UniProt P01116, G12C); test: GDP-GTP exchange assay (fluorescence based guanine nucleotide exchange, bodipy-GDP for GppNHp, SOS1); format: biochemical; settings: bodipy-loaded KRAS G12C 2.5 nM, GppNHp 500 uM, SOS1 150 nM; 2 hours pre-incubation with inhibitor; read-out: G12C_exchange IC50
Experimental: Example A. GDP-GTP Exchange Assay.
The inhibitor potency of the exemplified compounds was determined in a fluorescence based guanine nucleotide exchange assay, which measures the exchange of bodipy-GDP (fluorescently labeled GDP) for GppNHp (Non-hydrolyzable GTP analog) to generate the active state of KRAS in the presence of SOS1 (guanine nucleotide exchange factor). Inhibitors were serially diluted in DMSO and a volume of 0.1 μL was transferred to the wells of a black low volume 384-well plate. 5 μL/well volume of bodipy-loaded KRAS G12C diluted to 5 nM in assay buffer (25 mM Hepes pH 7.5, 50 mM NaCl, 10 mM MgCl2 and 0.01% Brij-35) was added to the plate and pre-incubated with inhibitor for 2 hours at ambient temperature. Appropriate controls (enzyme with no inhibitor or with a G12C inhibitor (AMG -510)) were included on the plate. The exchange was initiated by the addition of a 5 μL/well volume containing 1 mM GppNHp and 300 nM SOS1 in assay buffer. The 10 μL/well reaction concentration of the bodipy-loaded KRAS G12C, GppNHp, and SOS1 were 2.5 nM, 500 uM, and 150 nM, respectively. The reaction plates were incubated at ambient temperature for 2 hours, a time estimated for complete GDP-GTP exchange in the absence of inhibitor. For the KRAS G12D and G12V mutants, similar guanine nucleotide exchange assays were used with 2.5nM as final concentration for the bodipy loaded KRAS proteins and with 4 hours and 3 hours incubation after adding GppNHp-SOS1 mixture for G12D and G12V respectively. A cyclic peptide described to selectively bind G12D mutant (Sakamoto et al., BBRC 484.3 (2017), 605-611) or internal compounds with confirmed binding were used as positive controls in the assay plates. Fluorescence intensities were measured on a PheraStar plate reader instrument (BMG Labtech) with excitation at 485 nm and emission at 520 nm.
Either GraphPad prism or XLfit was used to analyze the data. The IC50 values were derived by fitting the data to a four parameter logistic equation producing a sigmoidal dose -response curve with a variable Hill coefficient. Y=Bottom+(Top−Bottom)/(1+10^((LogIC50−X)*Hill slope)); XLfit equation: Y=(A+((B−A)/(1+((X/C)^D)))) where X is the logarithm of inhibitor concentration and Y is the response. Prism equation: […]

[2] = system: MIA PaCa-2 (KRAS G12C) cells; test: Cellular pERK HTRF assay; format: cell-based, human; settings: KRAS_G12C pERK assay, cells incubated with compounds 4 hours, read-out: G12C_pERK IC50
Experimental: Example C: Cellular pERK HTRF Assay
MIA PaCa-2 (KRAS G12C; ATCC® CRL-1420), A427 (KRAS G12D; ATCC® HTB53), HPAF-II (KRAS G12D; ATCC® CRL-1997) and NCI-H838 (KRAS WT; ATCC® CRL-5844) cells are purchased from ATCC and maintained in RPMI 1640 media supplemented with 10% FBS (Gibco/Life Technologies). The cells are plated at 5000 cells per well (8 uL) into Greiner 384-well low volume, flat-bottom, tissue culture treated white plates and incubated overnight at 37° C., 5% CO2. The next morning, test compound stock solutions are diluted in media at 3× the final concentration, and 4 uL are added to the cells. The plate is mixed by gentle rotation for 30 seconds (250rpm) at room temperature. The cells are incubated with the KRAS G12C and G12D compounds for 4 hours or 2 hours respectively at 37° C., 5% CO2.
4 uL of 4× lysis buffer with blocking reagent (1:25) (Cisbio) are added to each well and plates are rotated gently (300 rpm) for 30 minutes at room temperature. 4 uL per well of Cisbio anti Phospho-ERK 1/2 d2 is mixed with anti Phospho-ERK 1/2 Cryl)tate (1:1) are added to each well, mixed by rotation and incubated overnight in the dark at room temperature. Plates are read on the Pherastar plate reader at 665 nm and 620 nm wavelengths. IC50 determination is performed by fitting the curve of inhibitor percent inhibition versus the log of the inhibitor concentration using the GraphPad Prism 7 software.

Row | Compound | IC50 [1] [µM] | IC50 ([2]; Homo sapiens, MIA PaCa-2) [µM] | IC50 [2] [µM]
1 | 4-(1-cyclopropyl-3-vinyl-5,6-dihydroimidazo[1,5-a]pyrazin-7(8H)-yl)-7-(2-fluoro-6-hydroxyl)henyl)-1-(2-isopropyl-4-methylpyridin-3-yl)quinazolin-2(1H)-one [Example 8] | 0.1 to 1 | – | –
2 | C=Cc1ncc2n1CCN(c1nc(OCC3CCCN3C)nc3c(F)c(-c4cc(O)cc5ccccc45)c(Cl)cc13)C2 (racemic) [Example 11, 4-(6-chloro-8-fluoro-2-((1-methylpyrrolidin-2-yl)methoxy)-4-(3-vinyl-5,6-dihydroimidazo[1,5-a]pyrazin-7(8H)-yl)quinazolin-7-yl)naphthalen-2-ol] | ≤ 0.1 | 1 to 5 | –
3 | C=Cc1ncc2n1CCN(c1nc(OCC3CCCN3C)nc3c(F)c(-c4c(O)cccc4F)c(Cl)cc13)C2 (racemic) [Example 12, 2-(6-chloro-8-fluoro-2-((1-methylpyrrolidin-2-yl)methoxy)-4-(3-vinyl-5,6-dihydroimidazo[1,5-a]pyrazin-7(8H)-yl)quinazolin-7-yl)-3-fluorophenol] | 0.1 to 1 | 5 to 10 | –
4 | C=Cc1ncc2n1CCN(c1nc(OCC3CCCN3C)nc3c(F)c(-c4c(C)ccc5[nH]ncc45)c(Cl)cc13)C2 (racemic) [Example 13, 6-chloro-8-fluoro-7-(5-methyl-1H-indazol-4-yl)-2-((1-methylpyrrolidin-2-yl)methoxy)-4-(3-vinyl-5,6-dihydroimidazo[1,5-a]pyrazin-7(8H)-yl)quinazoline] | 0.1 to 1 | 5 to 10 | –
5 | C=Cc1ncc2n1CCN(c1nc(OC3CCCN(C)C3)nc3c(F)c(-c4cc(O)cc5ccccc45)c(Cl)cc13)C2 (racemic) [Example 18, 4-(6-chloro-8-fluoro-2-((1-methylpiperidin-3-yl)oxy)-4-(3-vinyl-5,6-dihydro-imidazo[1,5-a]pyrazin-7(8H)-yl)quinazolin-7-yl)naphthalen-2-ol] | 0.1 to 1 | 5 to 10 | –
6 | C=Cc1ncc2n1CCN(c1nc(=O)n(-c3c(C)ccnc3C(C)C)c3nc(-c4c(O)cccc4F)c(F)cc13)C2 (single isomer, unassigned) [Example 1] | 0.1 to 1 | 5 to 10 | –
7 | C=Cc1ncc2n1CCN(c1nc(=O)n(-c3c(C)ccnc3C(C)C)c3nc(-c4c(O)cccc4F)c(F)cc13)C2 (single isomer, unassigned) [Example 2] | 0.1 to 1 | – | 5 to 10
8 | C=Cc1ncc2n1CCN(c1nc(=O)n(CC3CC3)c3nc(-c4c(O)cccc4F)c(F)cc13)C2 [Example 3] | 0.1 to 1 | 5 to 10 | –
9 | C=Cc1ncc2n1CCN(c1nc(=O)n(C(C)C)c3nc(-c4c(O)cccc4F)c(F)cc13)C2 [Example 4] | 0.1 to 1 | 5 to 10 | –
10 | C=Cc1ncc2n1CCN(c1nc(=O)n(CCOC)c3nc(-c4c(O)cccc4F)c(F)cc13)C2 [Example 5] | 1 to 5 | – | –
11 | Cc1ccnc(C(C)C)c1-n1c(=O)nc(N2CCn3c(cnc3/C=C/c3cc(F)cc(F)c3)C2)c2cc(F)c(-c3c(O)cccc3F)nc21 [Example 6] | 1 to 5 | – | –
12 | Cc1ccnc(C(C)C)c1-n1c(=O)nc(N2CCn3c(cnc3/C=C/c3ccc(F)cc3F)C2)c2cc(F)c(-c3c(O)cccc3F)nc21 [Example 7] | 1 to 5 | – | –
13 | C=Cc1nc(CN2CC(C(F)(F)F)C2)c2n1CCN(c1nc(=O)n(-c3c(C)ccnc3C(C)C)c3nc(-c4c(O)cccc4F)c(F)cc13)C2 [Example 9] | 1 to 5 | – | –
14 | C=Cc1nc(CN(C)CC#N)c2n1CCN(c1nc(=O)n(-c3c(C)ccnc3C(C)C)c3nc(-c4c(O)cccc4F)c(F)cc13)C2 [Example 10] | 1 to 5 | – | –
15 | C=Cc1ncc2n1CCN(c1nc(OCCN(C)C)nc3c(F)c(-c4cc(O)cc5ccccc45)c(Cl)cc13)C2 [Example 14, 4-(6-chloro-2-(2-(dimethylamino)ethoxy)-8-fluoro-4-(3-vinyl-5,6-dihydroimidazo[1,5-a]pyrazin-7(8H)-yl)quinazolin-7-yl)naphthalen-2-ol] | 0.1 to 1 | 1 to 5 | –
16 | C=Cc1ncc2n1CCN(c1nc(OC3CCN(C)CC3)nc3c(F)c(-c4cc(O)cc5ccccc45)c(Cl)cc13)C2 [Example 15, 4-(6-chloro-8-fluoro-2-((1-methylpiperidin-4-yl)oxy)-4-(3-vinyl-5,6-dihydroimidazo[1,5-a]pyrazin-7(8H)-yl)quinazolin-7-yl)naphthalen-2-ol] | 0.1 to 1 | 5 to 10 | –
17 | C=Cc1ncc2n1CCN(c1nc(OCCN3CCOCC3)nc3c(F)c(-c4cc(O)cc5ccccc45)c(Cl)cc13)C2 [Example 16, 4-(6-chloro-8-fluoro-2-(2-morpholinoethoxy)-4-(3-vinyl-5,6-dihydroimidazo-[1,5-a]pyrazin-7(8H)-yl)quinazolin-7-yl)naphthalen-2-ol] | 0.1 to 1 | 5 to 10 | –
18 | C=Cc1ncc2n1CCN(c1nc(OC[C@@H]3CCCN3C)nc3c(F)c(-c4cc(O)cc5ccccc45)c(Cl)cc13)C2 [Example 17, 4-(6-chloro-8-fluoro-2-(((S)-1-methylpyrrolidin-2-yl)methoxy)-4-(3-vinyl-5,6-dihydroimidazo[1,5-a]pyrazin-7(8H)-yl)quinazolin-7-yl)naphthalen-2-ol] | 0.1 to 1 | 1 to 5 | –
19 | C=Cc1ncc2n1CCN(c1nc(N3CC(N(C)C)C3)nc3c(F)c(-c4cc(O)cc5ccccc45)c(Cl)cc13)C2 [Example 19, 4-(6-chloro-2-(3-(dimethylamino)azetidin-1-yl)-8-fluoro-4-(3-vinyl-5,6-dihydroimidazo[1,5-a]pyrazin-7(8H)-yl)quinazolin-7-yl)naphthalen-2-ol] | 0.1 to 1 | 1 to 5 | –
